Data: US20220087983A1, “ACTIVATING PYRUVATE KINASE R” (FORMA Therapeutics, Inc., priority 2020, published 2022)
“And” between values parts separate entries of the source, which are not always exact repeats. Identical values can stand only once. “Also recorded” adds a separate entry of the source.

How the values were obtained:
CYP2B6 = assay: CYP mRNA induction in cultured human hepatocytes; assay type: in vitro ADME; conditions: donors AIH, EUJ, HC5-40 individually
PKR in mouse RBCs = target: T1, PKR in mouse RBCs (Mus musculus, UniProt P53657); assay: PKR activation in mouse red blood cells; assay type: cell-based
T1 construct: endogenous in cells; host or cells: mouse RBCs freshly isolated from whole blood
T1 sequence (P53657 whole entry): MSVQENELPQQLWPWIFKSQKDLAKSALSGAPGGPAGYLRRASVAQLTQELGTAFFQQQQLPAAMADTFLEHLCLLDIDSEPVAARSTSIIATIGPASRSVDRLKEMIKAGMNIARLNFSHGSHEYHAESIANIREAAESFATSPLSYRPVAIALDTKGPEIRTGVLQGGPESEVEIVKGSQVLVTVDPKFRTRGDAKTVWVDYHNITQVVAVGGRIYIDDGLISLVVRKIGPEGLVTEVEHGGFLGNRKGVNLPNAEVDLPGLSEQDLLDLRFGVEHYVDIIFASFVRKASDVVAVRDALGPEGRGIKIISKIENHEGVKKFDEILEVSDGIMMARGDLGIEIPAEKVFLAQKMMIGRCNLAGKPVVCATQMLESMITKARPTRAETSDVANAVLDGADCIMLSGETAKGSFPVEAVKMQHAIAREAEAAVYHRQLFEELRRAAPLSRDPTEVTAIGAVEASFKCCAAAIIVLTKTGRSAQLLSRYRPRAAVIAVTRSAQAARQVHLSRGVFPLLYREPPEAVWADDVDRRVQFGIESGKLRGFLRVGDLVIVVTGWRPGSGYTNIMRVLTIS
From the text: Mouse RBCs were isolated fresh from whole blood using a Ficoll gradient and assayed with methods similar to those used in the human RBCs assays.

2,3-DPG blood levels = assay: Phase 1: blood 2,3-DPG levels in SCD patients; assay type: in vivo, human
Experimental: In this study, SAD/MAD cohorts are randomized (3 to 1) to receive Compound 1 or placebo (P). Compound 1 was evaluated first in 4 healthy SAD cohorts and 4 healthy MAD (14-day dosing period) cohorts. Based on the safety, and PK/PD profile from HS, Compound 1 is then evaluated in 1 SCD SAD cohort and 2 SCD MAD cohorts. Specifically, based on the safety and pharmacokinetic/pharmacodynamics (PK/PD) profile in healthy volunteer studies, Compound 1 is evaluated in patients (pts) with SCD, first in a single dose (SD or SAD) cohort and then in multiple-dose (MD or MAD) cohorts (14-day and 12-week). Safety assessments include AEs, vital signs, ECGs and laboratory parameters. PK/PD blood sampling was performed on Day 1 (SAD/MAD) and Day 14 (MAD) and up to 72 h after the last dose and at the end-of-study visit. PD parameters included 2,3-DPG, ATP, and p50 in all cohorts with additional PD studies (including oxygen scan) performed only in the SCD cohorts. […]
The following table reports the mean percentage change in 2,3-DPG blood levels, relative to baseline, measured over time in SCD patients after a single dose of Compound 1 (700 mg):
The following table reports the mean percentage change in 2,3-DPG blood levels, relative to baseline, measured over time after the first dose on days 1 and 14 in SCD patients who received daily doses of Compound 1 (300 mg QD) for 14 days: […]

aromatase = target: T2, aromatase (Homo sapiens, UniProt P11511); assay: Aromatase inhibition; conditions: non-clinical testing
T2 sequence (P11511 1-503): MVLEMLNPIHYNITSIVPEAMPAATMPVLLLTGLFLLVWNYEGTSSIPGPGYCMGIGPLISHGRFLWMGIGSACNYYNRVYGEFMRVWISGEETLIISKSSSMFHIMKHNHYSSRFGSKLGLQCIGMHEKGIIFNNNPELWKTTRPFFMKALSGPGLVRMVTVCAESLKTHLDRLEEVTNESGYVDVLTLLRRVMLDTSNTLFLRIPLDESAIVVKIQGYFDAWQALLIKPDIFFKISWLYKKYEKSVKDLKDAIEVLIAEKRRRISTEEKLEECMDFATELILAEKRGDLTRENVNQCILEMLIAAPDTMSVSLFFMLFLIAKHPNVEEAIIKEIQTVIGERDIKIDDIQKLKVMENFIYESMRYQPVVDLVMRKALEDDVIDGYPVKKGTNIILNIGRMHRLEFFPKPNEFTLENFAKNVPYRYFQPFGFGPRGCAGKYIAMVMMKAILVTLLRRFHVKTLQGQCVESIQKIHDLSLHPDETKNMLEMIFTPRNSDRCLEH

CYP1A2 = assay: CYP mRNA induction in cultured human hepatocytes; assay type: in vitro ADME; conditions: donors AIH, EUJ, HC5-40 individually
[1] = test system: estradiol and testosterone levels; assay: Circulating estradiol and testosterone in healthy subjects, 14 days; assay type: in vivo, human; conditions: up to 14 days, 100-300 mg BID, 400 mg QD
Experimental: Effects on circulating levels of estradiol and testosterone in male and female healthy subjects receiving Compound 1 or placebo for a treatment period of 14 days were evaluated. Compound 1 was administered twice daily (BID) at dose levels of 100 mg, 200 mg, and 300 mg, and once daily (QD) at a dose level of 400 mg. Each dosing cohort was comprised of 9 subjects treated with Compound 1 and 3 subjects treated with placebo. Testosterone and estradiol levels were assessed prior to dosing (baseline), and then on days 8, 14 and 17.

CYP2C19 = target: T3, CYP2C19 (Homo sapiens, UniProt P33261); assay: Single substrate DDI assay, reversible CYP inhibition in human liver microsomes; assay type: in vitro ADME
T3 construct: from tissue; host or cells: human liver microsomes
T3 sequence (P33261 whole entry): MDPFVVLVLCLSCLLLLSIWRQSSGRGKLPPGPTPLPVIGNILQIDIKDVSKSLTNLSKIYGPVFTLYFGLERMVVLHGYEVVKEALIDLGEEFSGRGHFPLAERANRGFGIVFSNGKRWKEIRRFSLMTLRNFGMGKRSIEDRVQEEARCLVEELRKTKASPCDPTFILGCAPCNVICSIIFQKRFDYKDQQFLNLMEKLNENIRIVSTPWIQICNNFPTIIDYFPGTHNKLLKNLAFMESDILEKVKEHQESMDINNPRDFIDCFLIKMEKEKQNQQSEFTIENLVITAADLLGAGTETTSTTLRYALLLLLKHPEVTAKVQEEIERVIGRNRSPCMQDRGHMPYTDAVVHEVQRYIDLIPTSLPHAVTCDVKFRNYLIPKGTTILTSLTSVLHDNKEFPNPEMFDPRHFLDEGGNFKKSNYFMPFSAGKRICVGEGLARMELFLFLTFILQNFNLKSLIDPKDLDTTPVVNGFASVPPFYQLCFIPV

`O=C([C@H](CO)c1ccccc1)N1CC2=C(C1)CN(S(=O)(=O)c1cnc3c(c1)OCCO3)C2` (single isomer, unassigned) [Compound 1] was tested, and the “mRNA Fold Induction CYP2B6” value (CYP2B6; 0.033 μM) was 1.17 fold, the “mRNA Fold Induction CYP2B6” value (CYP2B6; 0.1 μM) was 1.23 fold and 1.06 fold and the “mRNA Fold Induction CYP2B6” value (CYP2B6; 0.33 μM) was 1.10 fold and 0.964 fold. The “mRNA Fold Induction CYP2B6” value (CYP2B6; 1 μM) was 1.29 fold, the “mRNA Fold Induction CYP2B6” value (CYP2B6; 3.3 μM) was 1.24 fold and the “mRNA Fold Induction CYP2B6” value (CYP2B6; 10 μM) was 1.43 fold and 1.21 fold. It also gave a fold induction at 1 µM (CYP2B6; human, 1 μM) of 1.07, a fold induction at 3.3 µM (CYP2B6; human, 3.3 μM) of 1.25 and a fold induction at 0.033 µM (CYP2B6; human, primary cultured human hepatocytes, 0.033 μM) of 0.982. The fold induction at 0.1 µM (CYP2B6; human, primary cultured human hepatocytes, 0.1 μM) was 1.01, the fold induction at 0.33 µM (CYP2B6; human, primary cultured human hepatocytes, 0.33 μM) was 1 and the fold induction at 1 µM (CYP2B6; human, primary cultured human hepatocytes, 1 μM) was 1. For the same compound, the fold induction at 3.3 µM (CYP2B6; human, primary cultured human hepatocytes, 3.3 μM) was 1.26, the fold induction at 10 µM (CYP2B6; human, primary cultured human hepatocytes, 10 μM) was 1.7 and the “Max − Min (%)” value (PKR in mouse RBCs; individual replicates 1-2) was <50% and <100%. For the same compound, the “Mean Max − Min (%)” value (PKR in mouse RBCs; mean) was under 100%, the “Mean percentage change in 2,3-DPG blood levels” value (2,3-DPG blood levels; SCD patients, single dose 700 mg, 0 h after dose) was −0% and the “lag of maximum 2,3-DPG decrease behind maximum plasma concentration” value (2,3-DPG blood levels; SCD, single 700 mg dose (FIG. 54B)) was “about 24 hours”. The aromatase inhibition (aromatase) was “absence of aromatase inhibition”, the “mRNA Fold Induction CYP1A2” value (CYP1A2; 0.033 μM) was 1.07 fold and 0.989 fold and 1.23 fold and the “mRNA Fold Induction CYP1A2” value (CYP1A2; 0.1 μM) was 0.942 fold and 0.958 fold and 1.05 fold. The “mRNA Fold Induction CYP1A2” value (CYP1A2; 0.33 μM) was 0.887 fold and 1.10 fold and 1.20 fold, the “mRNA Fold Induction CYP1A2” value (CYP1A2; 1 μM) was 0.911 fold and 1.20 fold and 1.14 fold and the “mRNA Fold Induction CYP1A2” value (CYP1A2; 3.3 μM) was 0.892 fold and 1.24 fold and 1.11 fold. For the same compound, the “mRNA Fold Induction CYP1A2” value (CYP1A2; 10 μM) was 1.02 fold and 1.33 fold and 1.25 fold, the “effect on testosterone and estradiol levels” value [1] was “No effect; also recorded: no statistically significant changes” and the IC50 (CYP2C19) was over 30 µM.
